Among the data in patent publication US8580842B2, “Heteroaryl-substituted 1,3-dihydroindol-2-one derivatives and medicaments containing them” (Abbott GmbH & Co. KG, priority 2003, dated 2013) are Ki values, retold here.

Where a name gives a salt, the structure may show the parent alone. Bounds are passed on as bounds.

The assay deals with T1, human V1b receptors (Homo sapiens, UniProt P47901).
T1 construct: expressed in transfected cells; host or cells: CHO-K1 (membrane preparation V1b-3H2)
T1 sequence (P47901 1-424): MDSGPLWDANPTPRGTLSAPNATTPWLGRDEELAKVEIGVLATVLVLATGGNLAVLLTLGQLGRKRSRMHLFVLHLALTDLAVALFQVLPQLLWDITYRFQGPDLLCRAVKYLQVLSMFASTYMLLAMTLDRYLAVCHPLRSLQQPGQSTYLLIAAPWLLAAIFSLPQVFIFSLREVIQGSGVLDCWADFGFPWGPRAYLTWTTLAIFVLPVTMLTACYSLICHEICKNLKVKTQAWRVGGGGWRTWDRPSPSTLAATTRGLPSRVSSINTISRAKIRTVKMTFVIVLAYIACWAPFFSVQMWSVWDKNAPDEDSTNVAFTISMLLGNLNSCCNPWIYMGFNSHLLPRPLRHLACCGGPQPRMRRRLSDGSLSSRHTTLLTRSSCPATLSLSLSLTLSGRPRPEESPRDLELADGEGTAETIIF
Briefly: Vasopressin V1b receptor binding assay. As to conditions: membranes from CHO-K1 cells expressing human V1b receptors, displacement of 1.5 nM 3H-AVP; read-out: Binding affinity for the vasopressin V1b receptor. As to the method:
Vasopressin V1b Receptor Binding Assay
The binding of the compounds of this invention to the vasopressin V1b receptor was determined with the following assay:
Compounds were dissolved in a concentration of 10^−2 M or 10^−3 M in DMSO. Further dilutions were performed with water.
The procedure for the binding assay was based on the method of Tahara et al. (Tahara A et al., Brit. J. Pharmacol. 125, 1463-1470 (1998)). Assays (0.250 ml) consisted of membranes (58 μg protein) from CHO-K1 cells permanently expressing human V1b receptors (preparation V1b-3H2, containing protease inhibitors, Roche complete Mini #1836170), 1.5 nM ^3H-AVP (8-Arg-vasopressin, NET 800) in incubation buffer (total binding) and different concentrations of test compound (displacement). Non-specific binding was defined with 10^−6 M AVP. Assays were performed in triplicate.
Incubation buffer: 50 mM Tris, 10 mM MgCl2, 0.1% BSA adjusted to pH 7.4 with HCl.
After incubation, 60 min at room temperature, bound and free radioligand was separated by filtration under vacuum through Whatman GF/B glass fibre mats using a Skatron cell harvester 7000.
Liquid scintillation counting was performed in beta-counters, Tricarb model 2000 or 2200CA (Packard). Dpm were calculated by a programme with standardisation using a standard quench series.
Evaluation of binding parameters was performed by non-linear regression analysis with SAS. The strategy of this program is similar to the program LIGAND described by Munson and Rodbard (Munson PJ and Rodbard D, Analytical Biochem 107, 220-239 (1980)).
With `COc1ncccc1C1(OC(=O)N2CCN(C3CCN(C)CC3)CC2)C(=O)N(S(=O)(=O)c2csc3ccccc23)c2ccc(Cl)cc21` (stereo not shown) [Example 170, 4-(1-Methyl-piperidin-4-yl)-piperazine-1-carboxylic acid 1-(benzo[b]thiophene-3-sulfonyl)-5-chloro-3-(2-methoxy-pyridin-3-yl)-2-oxo-2,3-dihydro-1H-indol-3-yl ester diacetate], the Ki lay within 50 to 500 nM.
In the case of `CCOc1ncccc1C1(N2C[C@H](O)C[C@H]2C(=O)N(C)C)C(=O)N(S(=O)(=O)c2ccc(OC)cc2OC)c2ccc(Cl)cc21` (single isomer, unassigned) [Example 239] it was less than 50 nM; in that of `COc1ncccc1C1(N2C[C@H](O)C[C@H]2C(=O)N(C)C)C(=O)N(S(=O)(=O)c2cccs2)c2ccc(Cl)cc21` (single isomer, unassigned) [Example 270], less than 50 nM.
With `COc1ccc(S(=O)(=O)N2C(=O)C(c3nccnc3OC)(N3C[C@H](O)C[C@H]3C(=O)N(C)C)c3cc(Cl)ccc32)c(OC)c1` (single isomer, unassigned) [Example 13], the Ki is less than 50 nM.
In the case of `COc1ccc(S(=O)(=O)N2C(=O)C(OC(=O)Nc3ccc(Cl)cc3)(c3sccc3C)c3cc(Cl)ccc32)c(OC)c1` (stereo not shown) [Example 63, (4-Chloro-phenyl)-carbamic acid 5-chloro-1-(2,4-dimethoxy-benzenesulfonyl)-3-(3-methyl-thiophen-2-yl)-2-oxo-2,3-dihydro-1H-indol-3-ylester] it was more than 500 nM; in that of `COc1ccccc1C1(N2C[C@H](O)C[C@H]2C(=O)N(C)C)C(=O)N(S(=O)(=O)c2cc(Br)c(Cl)s2)c2ccc(Cl)cc21` (stereo partly drawn) [Example 33, (2S,4R)-1-[1-(4-Bromo-5-chloro-thiophene-2-sulfonyl)-5-chloro-3-(2-methoxy-phenyl)-2-oxo-2,3-dihydro-1H-indol-3-yl]-4-hydroxy-pyrrolidine-2-carboxylic acid dimethylamide trifluoroacetate], 50 to 500 nM; in that of `COc1ncccc1C1(N2C[C@H](O)C[C@H]2C(=O)N(C)C)C(=O)N(S(=O)(=O)c2cccs2)c2ccc(C#N)cc21` (single isomer, unassigned) [Example 277], 50 to 500 nM.
To `COc1ccccc1C1(OC(=O)N2CCC(N3CCN(C)CC3)CC2)C(=O)N(S(=O)(=O)c2cccs2)c2ccc(C)cc21` (stereo not shown) [Example 130, 4-(4-Methyl-piperazin-1-yl)-piperidine-1-carboxylic acid 3-(2-methoxy-phenyl)-5-methyl-2-oxo-1-(thiophene-2-sulfonyl)-2,3-dihydro-1H-indol-3-yl ester dihydrochloride] belongs less than 50 nM; to `COc1ccc(S(=O)(=O)N2C(=O)C(c3ccncc3OC)(N3C[C@H](O)C[C@H]3C(=O)N(C)C)c3cc(Cl)ccc32)c(OC)c1` (single isomer, unassigned) [Example 234], less than 50 nM.
In the case of `COc1ccc(S(=O)(=O)N2C(=O)C(c3nccnc3OC)(N3C[C@H](O)C[C@H]3C(=O)N(C)C)c3cc(I)ccc32)c(OC)c1` (single isomer, unassigned) [Example 243] it was less than 50 nM.
Take `COc1ccc(S(=O)(=O)N2C(=O)C(c3ncccc3C)(N3C[C@H](O)C[C@H]3C(=O)N(C)C)c3cc(Cl)ccc32)c(OC)c1` (single isomer, unassigned) [Example 222]: the Ki was less than 50 nM.
To `CCOc1ccccc1C1(OC(=O)N2CCN(C3CCN(C)CC3)CC2)C(=O)N(S(=O)(=O)c2cccc3cccnc23)c2ccc(OC)cc21` (stereo not shown) [Example 154, 4-(1-Methyl-piperidin-4-yl)-piperazine-1-carboxylic acid 3-(2-ethoxy-phenyl)-5-methoxy-2-oxo-1-(quinoline-8-sulfonyl)-2,3-dihydro-1H-indol-3-yl ester] belongs less than 50 nM; to `COc1ccc(S(=O)(=O)N2C(=O)C(c3ncccc3OC)(N3C[C@H](O)C[C@H]3C(=O)N(C)C)c3cc(Cl)ccc32)c(OC)c1` (single isomer, unassigned) [Example 9], less than 50 nM.
To `CCOc1ccccc1C1(OC(=O)N2CCN(C3CCN(C)CC3)CC2)C(=O)N(S(=O)(=O)c2ccc(C)cn2)c2ccc(Cl)cc21` (stereo not shown) [Example 145, 4-(1-Methyl-piperidin-4-yl)-piperazine-1-carboxylic acid 5-chloro-3-(2-ethoxy-phenyl)-1-(5-methyl-pyridine-2-sulfonyl)-2-oxo-2,3-dihydro-1H-indol-3-yl ester] belongs less than 50 nM; to `COc1ccc(S(=O)(=O)N2C(=O)C(NC(=O)C3CCN(c4ccncc4)CC3)(c3cccnc3OC)c3cc(Cl)ccc32)c(OC)c1` (stereo not shown) [Example 82, 3,4,5,6-Tetrahydro-2H-[1,4′]bipyridinyl-4-carboxylic acid [5-chloro-1-(2,4-dimethoxy-benzenesulfonyl)-3-(2-methoxy-pyridin-3-yl)-2-oxo-2,3-dihydro-1H-indol-3-yl]-amide], less than 50 nM.
With `COc1ccccc1C1(OC(=O)N2CCCCC2)C(=O)N(S(=O)(=O)c2cccc3cccnc23)c2ccc(Cl)cc21` (stereo not shown) [Example 65, Piperidine-1-carboxylic acid 5-chloro-3-(2-methoxy-phenyl)-2-oxo-1-(quinoline-8-sulfonyl)-2,3-dihydro-1H-indol-3-yl ester], the Ki lay within 50 to 500 nM.
Consider `COc1ccc(S(=O)(=O)N2C(=O)C(c3cccnc3OC)(N3C[C@H](O)C[C@H]3C(=O)N(C)C)c3cc(C#N)ccc32)c(OC)c1` (single isomer, unassigned) [Example 232], for which the Ki is less than 50 nM.
With `COc1ccc(S(=O)(=O)N2C(=O)C(c3cccnc3OC)(N3CC=C[C@H]3C(=O)N(C)C)c3cc(Cl)ccc32)c(OC)c1` (mixture of isomers) [Example 247, (S)-1-[5-Chloro-1-(2,4-dimethoxy-benzenesulfonyl)-3-(2-methoxy-pyridin-3-yl)-2-oxo-2,3-dihydro-1H-indol-3-yl]-2,5-dihydro-1H-pyrrole-2-carboxylic acid dimethylamide], the Ki is less than 50 nM.
On to `COc1ncccc1C1(OC(=O)N2CCN(C3CCN(C)CC3)CC2)C(=O)N(S(=O)(=O)c2ccsc2)c2ccc(Cl)cc21` (stereo not shown) [Example 171, 4-(1-Methyl-piperidin-4-yl)-piperazine-1-carboxylic acid 5-chloro-3-(2-methoxy-pyridin-3-yl)-2-oxo-1-(thiophene-3-sulfonyl)-2,3-dihydro-1H-indol-3-yl ester diacetate], for which the Ki was less than 50 nM.
For the compound `COc1ccccc1C1(OC(=O)N2CCN(C3CCN(C)CC3)CC2)C(=O)N(S(=O)(=O)c2cccs2)c2ccc(F)cc21` (stereo not shown) [Example 136, 4-(1-Methyl-piperidin-4-yl)-piperazine-1-carboxylic acid 5-fluoro-3-(2-methoxy-phenyl)-2-oxo-1-(thiophene-2-sulfonyl)-2,3-dihydro-1H-indol-3-yl ester], the Ki was less than 50 nM.
Regarding `COc1ccccc1C1(N2C[C@H](O)C[C@H]2C(=O)N(C)C)C(=O)N(S(=O)(=O)c2cccc(C)n2)c2ccc(Cl)cc21` (single isomer, unassigned) [Example 253], the Ki was less than 50 nM.
Take `COc1ccc(S(=O)(=O)N2C(=O)C(c3ccc[nH]c3=O)(N3C[C@H](O)C[C@H]3C(=O)N(C)C)c3cc(Cl)ccc32)c(OC)c1` (stereo partly drawn) [Example 224, (2S,4R)-1-[5-Chloro-1-(2,4-dimethoxy-benzenesulfonyl)-2-oxo-3-(2-oxo-1,2-dihydro-pyridin-3-yl)-2,3-dihydro-1H-indol-3-yl]-4-hydroxy-pyrrolidine-2-carlboxylic acid dimethylamide]: the Ki was less than 50 nM.
`COc1ccccc1C1(OC(=O)N2CCN(C3CCN(C)CC3)CC2)C(=O)N(S(=O)(=O)c2cccc3cccnc23)c2ccc(Cl)cc21` (stereo not shown) [Example 75, 4-(1-Methyl-piperidin-4-yl)-piperazine-1-carboxylic acid 5-chloro-3-(2-methoxy-phenyl)-2-oxo-1-(quinoline-8-sulfonyl)-2,3-dihydro-1H-indol-3-yl ester bismethanesulfonate]: the Ki was less than 50 nM.
In the case of `COc1ccc(S(=O)(=O)N2C(=O)C(c3cccnc3OC)(N3CC[C@H]3C(=O)N(C)C)c3cc(Cl)ccc32)c(OC)c1` (single isomer, unassigned) [Example 255] it was 50 to 500 nM; in that of `COc1ccccc1C1(N2C[C@H](O)C[C@H]2C(=O)N(C)C)C(=O)N(S(=O)(=O)c2sc(Cl)cc2Br)c2ccc(Cl)cc21` (single isomer, unassigned) [Example 32], 50 to 500 nM.
